The results in this text go back to US20240246980A1, “MODULATORS OF MAS-RELATED G-PROTEIN RECEPTOR D AND RELATED PRODUCTS AND METHODS” (Escient Pharmaceuticals, Inc., priority 2022, published 2024).

By IC50 is commonly meant the concentration needed to halve the response being measured. Read a low IC50 as higher potency.

The target of this assay is human MRGPRD (Homo sapiens, UniProt Q8TDS7). Briefly: MRGPRD antagonist activity, IP-One HTRF assay in CHO cells stably expressing human MRGPRD (versus 100 μM β-Alanine agonist). Type of assay: cell-based. The method, boiled down: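 Cells (20,000/well, plated overnight) received antagonist and agonist in buffer with 5.7 mM Tris-HCl, 43 mM NaCl and 50 mM LiCl at pH 8. Incubation ran 1 h at 37 °C, then 1 h at room temperature, before IP-1 HTRF detection. IC50 was fitted from the HTRF ratio, and percent antagonism was taken relative to the maximum efficacy response, given as averages with SEM.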
human MRGPRD, sequence (Q8TDS7 whole entry): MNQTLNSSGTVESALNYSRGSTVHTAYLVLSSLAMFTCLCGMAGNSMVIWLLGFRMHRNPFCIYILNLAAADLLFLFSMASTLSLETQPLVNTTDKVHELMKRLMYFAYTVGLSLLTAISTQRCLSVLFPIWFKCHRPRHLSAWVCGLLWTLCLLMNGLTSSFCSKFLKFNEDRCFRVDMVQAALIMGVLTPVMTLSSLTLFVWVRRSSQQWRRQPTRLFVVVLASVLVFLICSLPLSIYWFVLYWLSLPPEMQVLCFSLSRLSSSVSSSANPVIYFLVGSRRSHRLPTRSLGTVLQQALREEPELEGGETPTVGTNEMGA

Take `CN(C)c1ccc(NC(=O)N2CCC[C@@H](c3nc(-c4cnn(Cc5ccccc5)c4)c4ccccn34)C2)cc1` [Compound 10-52]: the IC50 fell in the range of 1000 to 3000 nM.

As for `CN(C)c1ccc(NC(=O)N2CCC[C@@H](c3nc(-c4cnoc4)c4ccccn34)C2)cc1` [Compound 10-53], the IC50 lay within 500 to 1000 nM. Under `CN(C)c1ccc(NC(=O)N2CCC[C@@H](c3nc(-c4cn(S(=O)(=O)c5ccccc5)c5ccccc45)c4ccccn34)C2)cc1` [Compound 10-54] stands 500 to 1000 nM; under `Cc1noc(C)c1-c1nc([C@@H]2CCCN(C(=O)Nc3ccc(N(C)C)cc3)C2)n2ccccc12` [Compound 10-55], 500 to 1000 nM; under `CC(=O)c1ccc(-c2nc([C@@H]3CCCN(C(=O)Nc4ccc(N(C)C)cc4)C3)n3ccccc23)s1` [Compound 10-57], 500 to 1000 nM. As to `Cc1csc(-c2nc([C@@H]3CCCN(C(=O)Nc4ccc(N(C)C)cc4)C3)n3ccccc23)c1` [Compound 10-58], the IC50 fell in the range of 500 to 1000 nM. With `CN(C)c1ccc(NC(=O)N2CCC[C@@H](c3nc(-c4cccc(S(C)(=O)=O)c4)c4ccccn34)C2)cc1` [Compound 10-59], the IC50 was in the range of 1000 to 3000 nM. Under `COc1ncc(-c2nc([C@@H]3CCCN(C(=O)Nc4ccc(N(C)C)cc4)C3)n3ccccc23)cn1` [Compound 10-60] stands greater than 3000 nM.

In turn, `CN(C)c1ccc(NC(=O)N2CCC[C@@H](c3nc(-c4cc5ccccc5s4)c4ccccn34)C2)cc1` [Compound 10-61] came in with an IC50 greater than 3000 nM. Take `CN(C)c1ccc(NC(=O)N2CCC[C@@H](c3nc(-c4cnn(CC5CC5)c4)c4ccccn34)C2)cc1` [Compound 10-62]: the IC50 lay in the range of 1000 to 3000 nM. `CN(C)c1ccc(NC(=O)N2CCC[C@@H](c3nc(-c4cnn(-c5ccccc5)c4)c4ccccn34)C2)cc1` [Compound 10-63] had an IC50 of 1000 to 3000 nM. The value for `CN(C)Cc1cccc(-c2nc([C@@H]3CCCN(C(=O)Nc4ccc(N(C)C)cc4)C3)n3ccccc23)c1` [Compound 10-64] was greater than 3000 nM. Under `CN(C)c1ccc(NC(=O)N2CCC[C@@H](c3nc(-c4ccccc4CC#N)c4ccccn34)C2)cc1` [Compound 10-65] stands 500 to 1000 nM; under `CN(C)c1ccc(NC(=O)N2CCC[C@@H](c3nc(-c4ccccc4S(C)(=O)=O)c4ccccn34)C2)cc1` [Compound 10-66], greater than 3000 nM; under `COCc1cccc(-c2nc([C@@H]3CCCN(C(=O)Nc4ccc(N(C)C)cc4)C3)n3ccccc23)c1` [Compound 10-67], 1000 to 3000 nM. Under `CN(C)c1ccc(NC(=O)N2CCC[C@@H](c3nc(-c4nn(C)c5ccccc45)c4ccccn34)C2)cc1` [Compound 10-68] stands 500 to 1000 nM; under `CC(C)Cn1nc(C(F)(F)F)cc1-c1nc([C@@H]2CCCN(C(=O)Nc3ccc(N(C)C)cc3)C2)n2ccccc12` [Compound 10-69], 500 to 1000 nM. Regarding `COC(=O)c1cccc(-c2nc([C@@H]3CCCN(C(=O)Nc4ccc(N(C)C)cc4)C3)n3ccccc23)c1` [Compound 10-70], the IC50 was less than 100 nM. The value for `CN(C)C(=O)c1cccc(-c2nc([C@@H]3CCCN(C(=O)Nc4ccc(N(C)C)cc4)C3)n3ccccc23)c1` [Compound 10-71] was less than 100 nM; that for `CN(C)c1ccc(NC(=O)N2CCC[C@@H](c3nc(-c4cnn(C(F)F)c4)c4ccccn34)C2)cc1` [Compound 10-72] was 100 to 500 nM. Regarding `Cc1ccccc1-c1nc(C2CCCN(C(=O)Nc3ccccc3F)C2)n2ccccc12` (stereo not shown) [Compound 11-1], the IC50 lay within 1000 to 3000 nM. `O=C(Nc1ccccc1F)N1CCCC(c2nc(-c3ccccc3F)c3ccccn23)C1` (stereo not shown) [Compound 11-2]: the IC50 lay in the range of 1000 to 3000 nM. The value for `COc1ccccc1-c1nc(C2CCCN(C(=O)Nc3ccccc3F)C2)n2ccccc12` (stereo not shown) [Compound 11-3] was 1000 to 3000 nM. `Cc1cccc(-c2nc(C3CCCN(C(=O)Nc4ccccc4F)C3)n3ccccc23)c1` (stereo not shown) [Compound 11-4] displayed an IC50 greater than 3000 nM. Turning to `O=C(Nc1ccccc1F)N1CCCC(c2nc(-c3cccc(F)c3)c3ccccn23)C1` (stereo not shown) [Compound 11-5], the IC50 was 1000 to 3000 nM. `O=C(Nc1ccccc1F)N1CCCC(c2nc(-c3cccnc3)c3ccccn23)C1` (stereo not shown) [Compound 11-6] registered an IC50 greater than 3000 nM.

The compound `Cc1ccc(-c2nc(C3CCCN(C(=O)Nc4ccccc4F)C3)n3ccccc23)cc1` (stereo not shown) [Compound 11-7] came in with an IC50 of 1000 to 3000 nM.

Compound `O=C(Nc1ccccc1F)N1CCCC(c2nc(-c3ccc(F)cc3)c3ccccn23)C1` (stereo not shown) [Compound 11-8] registered an IC50 of 1000 to 3000 nM. Under `O=C(Nc1ccccc1F)N1CCCC(c2nc(-c3ccncc3)c3ccccn23)C1` (stereo not shown) [Compound 11-10] stands 1000 to 3000 nM. Take `O=C(Nc1ccccc1F)N1CCCC(c2nc(-c3ccccn3)c3ccccn23)C1` (stereo not shown) [Compound 11-11]: the IC50 was greater than 3000 nM.

Turning to `COc1cccc(-c2nc(C3CCCN(C(=O)Cc4ccccc4F)C3)n3ccccc23)c1` (stereo not shown) [Compound 12-1, 2-(2-fluorophenyl)-1-(3-(1-(3-methoxyphenyl)imidazo[1,5-a]pyridin-3-yl)piperidin-1-yl)ethan-1-one], the IC50 lay within 100 to 500 nM. `COc1cccc(-c2nc(C3CCCN(C(=O)Cc4ccc(F)cc4)C3)n3ccccc23)c1` (stereo not shown) [Compound 12-2] had an IC50 of 500 to 1000 nM. For the compound `COc1cccc(-c2nc(C3CCCN(C(=O)c4ccc(F)cc4)C3)n3ccccc23)c1` (stereo not shown) [Compound 12-3], the half-maximal inhibitory concentration (IC50) was in the range of 500 to 1000 nM. Under `COc1cccc(-c2nc(C3CCCN(C(=O)Cc4cccc(F)c4)C3)n3ccccc23)c1` (stereo not shown) [Compound 12-4] stands 100 to 500 nM.

In turn, `COc1cccc(-c2nc(C3CCCN(C(=O)c4ccccc4F)C3)n3ccccc23)c1` (stereo not shown) [Compound 12-5] had an IC50 of 500 to 1000 nM.

For `COc1cccc(-c2nc(C3CCCN(C(=O)c4cccc(F)c4)C3)n3ccccc23)c1` (stereo not shown) [Compound 12-6], the IC50 was 100 to 500 nM. Under `COc1cccc(-c2nc(C3CCCN(C(=O)c4ccc(C)cc4F)C3)n3ccccc23)c1` (stereo not shown) [Compound 12-7] stands 500 to 1000 nM; under `COc1cccc(-c2nc(C3CCCN(C(=O)c4ccc(C)cc4C)C3)n3ccccc23)c1` (stereo not shown) [Compound 12-8], 1000 to 3000 nM. Compound `COc1cccc(-c2nc(C3CCCN(C(=O)c4ccc(OC)cc4C)C3)n3ccccc23)c1` (stereo not shown) [Compound 12-9] registered an IC50 of 500 to 1000 nM. Under `COc1cccc(-c2nc(C3CCCN(C(=O)c4ccc(F)cc4C)C3)n3ccccc23)c1` (stereo not shown) [Compound 12-10] stands 1000 to 3000 nM. `COc1cccc(-c2nc(C3CCCN(C(=O)c4ccc(F)cc4F)C3)n3ccccc23)c1` (stereo not shown) [Compound 12-11] showed an IC50 of 500 to 1000 nM.

Take `COc1cccc(-c2nc(C3CCCN(C(=O)c4ccc(F)c(F)c4)C3)n3ccccc23)c1` (stereo not shown) [Compound 12-12]: the IC50 lay within 500 to 1000 nM.

Compound `COc1cccc(-c2nc([C@@H]3CCCN(C(=O)Cc4cccc(F)c4)C3)n3ccccc23)c1` [Compound 12-13] yielded an IC50 of 100 to 500 nM. In turn, `COc1cccc(-c2nc([C@@H]3CCCN(C(=O)c4cccc(F)c4)C3)n3ccccc23)c1` [Compound 12-14] came in with an IC50 of 500 to 1000 nM. Under `COc1cccc(-c2nc([C@H]3CCCN(C(=O)c4cccc(F)c4)C3)n3ccccc23)c1` [Compound 12-15] stands 100 to 500 nM; under `COc1cccc(-c2nc([C@H]3CCCN(C(=O)Cc4cccc(F)c4)C3)n3ccccc23)c1` [Compound 12-16], 1000 to 3000 nM.

`COc1cccc(-c2nc(C3CCCN(C(=O)Nc4ccccc4F)C3)n3c(OC)cccc23)c1` (stereo not shown) [Compound 13-1, N-(2-fluorophenyl)-3-(5-methoxy-1-(3-methoxyphenyl)imidazo[1,5-a]pyridin-3-yl)piperidine-1-carboxamide] had an IC50 of 100 to 500 nM.

Take `COc1cccc(-c2nc(C3CCCN(C(=O)c4ccccc4OC)C3)n3c(OC)cccc23)c1` (stereo not shown) [Compound 14-1, (3-(5-methoxy-1-(3-methoxyphenyl)imidazo[1,5-a]pyridin-3-yl)piperidin-1-yl)(2-methoxyphenyl)methanone]: the IC50 was in the range of 500 to 1000 nM. Regarding `COc1cccc(-c2nc(C3CCCN(C(=O)c4cc(OC)c(OC)c(OC)c4)C3)n3c(OC)cccc23)c1` (stereo not shown) [Compound 14-2], the IC50 was greater than 3000 nM. Consider `COc1cccc(C(=O)N2CCCC(c3nc(-c4cccc(OC)c4)c4cccc(OC)n34)C2)c1` (stereo not shown) [Compound 14-3], for which the IC50 is greater than 3000 nM. Under `COc1ccc(C(=O)N2CCCC(c3nc(-c4cccc(OC)c4)c4cccc(OC)n34)C2)cc1` (stereo not shown) [Compound 14-4] stands 100 to 500 nM; under `COc1cccc(-c2nc(C3CCCN(C(=O)c4ccc(OC)c(OC)c4)C3)n3c(OC)cccc23)c1` (stereo not shown) [Compound 14-5], 100 to 500 nM. Under `COc1cccc(-c2nc(C3CCCN(C(=O)Cc4ccccc4OC)C3)n3c(OC)cccc23)c1` (stereo not shown) [Compound 15-1, 1-(3-(5-methoxy-1-(3-methoxyphenyl)imidazo[1,5-a]pyridin-3-yl)piperidin-1-yl)-2-(2-methoxyphenyl)ethan-1-one] stands 500 to 1000 nM. Under `COc1cccc(-c2nc(C3CCCN(S(=O)(=O)c4ccccc4F)C3)n3ccccc23)c1` (stereo not shown) [Compound 16-1] stands 500 to 1000 nM. `COc1cccc(-c2nc(C3CCCN(S(=O)(=O)c4ccc(F)cc4)C3)n3ccccc23)c1` (stereo not shown) [Compound 16-3] gave an IC50 greater than 3000 nM.

Compound `COc1cccc(-c2nc(C3CCCN(S(=O)(=O)Cc4cccc(F)c4)C3)n3ccccc23)c1` (stereo not shown) [Compound 16-4] gave an IC50 of 100 to 500 nM. The value for `COc1cccc(-c2nc(C3CCCN(S(=O)(=O)Cc4ccccc4F)C3)n3ccccc23)c1` (stereo not shown) [Compound 16-5] was greater than 3000 nM; that for `COc1cccc(-c2nc(C3CCCN(S(=O)(=O)Cc4ccc(F)cc4)C3)n3ccccc23)c1` (stereo not shown) [Compound 16-6] was 100 to 500 nM.

Compound `COc1cccc(-c2nc([C@@H]3CCCN(S(=O)(=O)c4cccc(F)c4)C3)n3ccccc23)c1` [Compound 16-7] showed an IC50 of 100 to 500 nM.

In turn, `COc1cccc(-c2nc([C@H]3CCCN(S(=O)(=O)Cc4ccc(F)cc4)C3)n3ccccc23)c1` [Compound 16-8] came in with an IC50 of 1000 to 3000 nM. `COc1cccc(-c2nc([C@@H]3CCCN(S(=O)(=O)Cc4ccc(F)cc4)C3)n3ccccc23)c1` [Compound 16-9] registered an IC50 of less than 100 nM.
